Measured values published in patent publication US20240059740A1, “CYCLIC PEPTIDES AND USES THEREOF” (PRE[…] INC., priority 2020, published 2024).
Residues, ends and D or L forms follow the SMILES beside them.

Key:
Type in all cases: cell-based, human
[1] = tested on: 081024 cells; assay: BME cell invasion assay, 081024; settings: 24 h
Protocol: (§1) To assess whether the ability of SEQ ID NO.1 to inhibit MMP-2 activity and, to a lesser extent, reduce the production of matrix proteinases and downregulate the expression of EMT markers, was of functional consequence in reducing the invasiveness of the GBM cells, the ability of the peptide was tested at the concentrations of 1, 10 and 100 μM (none of which are toxic to cells) to inhibit invasion of the GBM cells through a basement membrane. This assay, described in more detail below, is an in vitro surrogate for measurement of the in vivo invasion by tumour cells of their environment.
(§2) The cell invasion assay employs a simplified Boyden chamber-like design that consists of two chambers separated by a filter (an 8 μm polycarbonate (PC) membrane) coated with basement membrane or different extracellular matrix components. The cell suspension is placed in the top chamber and incubated in the presence of test media containing specific chemo-attractants in the bottom chamber. Cells migrate from the top chamber to the bottom of the filter by degrading the coating over the filter pores. Detection of cell invasion is quantified using Calcein AM. Cell dissociation/Calcein AM solution is placed in the bottom chamber to dissociate the migrating cells from the filter. Calcein AM is internalized by the cells, and intracellular-esterases cleave the aceto-methylester (AM) moiety. Free Calcein fluoresces brightly and is used to quantitate the number of cells that have invaded or migrated by comparison with a standard curve (In Vitro Technologies Pty Ltd, (https://lifescience.invitro.com.au/brands/r-and-d-systems/).
(§3) The filter was coated with PathClear® growth factor reduced BME. The selected peptides were applied to the cells in both upper and lower wells to make sure the concentration of peptides were the same and the chemoattractant was serum at a concentration of 2% (for adherent U87 & U251 cells) or growth factor mix required in the medium (for non- adherent, 081024 oncospheres).
(§4) Cell invasion was determined using CultureCoat® 96 Well Medium BME Cell Invasion assay. Briefly, the cells were pre-starved 24 h before harvest. Then seeding 25,000 per well of cell in the upper chamber with serum free medium together different concentration of peptide. The bottom chamber also added different concentration of peptides with 2% (V/V) serum for GBM adherent cells or growth factor mix for neurosphere cells as chemoattractant. After 24 h incubation, the invading cells were measured by Calcein AM and calculated based on standard curve.
(§5) The results are shown in Table 12, the results are expressed as % inhibition.

[2] = tested on: 081024 cells; assay: MTT assay for cytotoxicity, 081024 oncospheres; settings: % viability of control
Description: The MTT (3-[4.5-dimethylthiazol-2-yl]-2,5═diphenyl tetrazolium bromide) assay is based on a process undertaken by living cells, involving the conversion of MTT into formazan crystals. This assay is used routinely to measure the in vitro cytotoxic effects of drugs on cell lines or primary patient cells (Van Meerloo et al., 2011). The MTT assay measures mitochondrial activity, so in some instances where the peptide activates mitochondrial response, the results appear to increase the number of cells present i.e. >100% cell viability.
The aim of this experiment was to identify peptide concentrations that are active on living cells and cell viability was assessed.
The glioblastoma multiforme (GBM) cell lines used were U87 and U251 cells and patient derived cells grown as oncospheres (081024 cells). Human adherent GBM cell lines U87 and U251 were cultured in RPMI medium (Life Technologies Melbourne Australia) supplemented with 5% v/v FBS, 100 U/mL penicillin and 100 μg/mL streptomycin. 081024 cells were cultrured in NeuroCult™ NS-A Proliferation medium with 0.2% (v/v) heparin, 20 ng/mL EGF and 10 ng/mL FGF.
8×10^3 U87 and 7×10^3 U251 cells per well were seeded in 96 well plates in 200 μL serum-containing RPMI medium and incubated at 37° C. with 5% CO2 for 24 hours. After one wash with serum-free medium, 100 μL serum-free medium with different concentration of peptide SEQ ID NO:1 was added to each well. After 48 hours incubation, 10 μL of 0.5 mg/mL MTT was added and incubated for 2 hours at 37° C. Formazan crystals were dissolved by 200 μL/well dimethyl sulfoxide (DMSO) and shaking for 15 minutes. The UV absorbance was read with an iMark™ microplate absorbance reader at 595 nm (Bio-Rad Laboratories). Background absorbance was subtracted and results expressed as the % viability of control (untreated cells).

[3] = tested on: U87 cells; assay: BME cell invasion assay, U87; settings: 24 h
Protocol: as §1, §2, §3, §4, §5

CC(C)C[C@@H]1NC(=O)[C@H](C)NC(=O)[C@@H](NC(=O)[C@@H]2CCCN2C(=O)[C@@H](N)CC(C)C)CSSC(C)(C)CNC(=O)CC[C@@H](C(=O)N[C@@H](CCCNC(=N)N)C(N)=O)NC(=O)[C@H](CC(=O)O)NC(=O)[C@H](CC(N)=O)NC1=O [SEQ ID NO: 1, Leu-Pro-c(SSA*-Ala-Leu-Asn-Asp-Glu)-Arg-NH2] (HELM PEPTIDE1{L.P.C.A.L.N.D.E.R.[am]}|CHEM1{[CC(C)(CN[*:2])S[*:1]]}$PEPTIDE1,CHEM1,3:R3-1:R1|PEPTIDE1,CHEM1,8:R3-1:R2$$$V2.0; N-terminus assumed)
Invasion Inhibition Index (%) ([1]; 1 μM, listed as SEQ ID NO. 1): 39.9%
Invasion Inhibition Index (%) ([1]; 1 μM, listed as SEQ ID NO.1): fairly comparable to that of Chlorotoxin
Invasion Inhibition Index (%) ([1]; 10 μM): 50.8%
Invasion Inhibition Index (%) ([1]; 100 μM): 58.3%
Cell viability ([2]; 1 μM): 104.2%
Cell viability ([2]; 5 μM): 106.8%
Cell viability ([2]; 10 μM): 106.7%
Cell viability ([2]; 50 μM): 106.5%
Cell viability ([2]; 100 μM): 106.9%
Cell viability ([2]; 500 μM): 99.68%
Cell viability ([2]; 1 mM): 89.58%
Invasion Inhibition Index (%) ([3]; 1 μM, listed as SEQ ID NO. 1): 7.6%
Invasion Inhibition Index (%) ([3]; 1 μM, listed as SEQ ID NO.1): lower inhibition index compared to Chlorotoxin
Invasion Inhibition Index (%) ([3]; 10 μM): 15.5%
Invasion Inhibition Index (%) ([3]; 100 μM): 24.3%
